The values that follow come from patent US7829669B2, “Catalytically active recombinant memapsin and methods of use thereof” (Oklahoma Medical Research Foundation, priority 1999, dated 2010).

Assay [1] concerns APP cleavage by M2 in HeLa cells. Description: APP cleavage in HeLa cells co-transfected with APP and M2, pulse-chase and immunoprecipitation. The format is cell-based, human. The settings on record: Bafilomycin A1 in the media.
The target of another assay is T1, M2pd (Homo sapiens, UniProt P56817).
T1 construct: Pro-memapsin 2 residues start at residue Ala-16; The two recombinant pro-memapsin 2s have different C-terminal lengths; Clone T1 ends at Thr-456; made in house
Description: Hydrolysis of synthetic peptide substrates by M2pd, kinetics by HPLC. The assay is classed as biochemical. From the text: A synthetic peptide derived from this site (SEVKM/DAEFR) (SEQ ID NO:4) was hydrolyzed by M2pd at the beta-secretase site (marked by /). A second peptide (SEVNL/DAEFR) (SEQ ID NO:5) derived from the APP beta-secretase site and containing the ‘Swedish mutation’ (Mullan, M. et al., Nature Genet. 2:340-342 (1992)), known to elevate the level of alpha-beta production in cells (Citron, M. et al., Nature […] (1992)), was hydrolyzed by M2pd with much higher catalytic efficiency. Both substrates were optimally cleaved at pH 4.0. A peptide derived from the processing site of presenilin 1 (SVNM/AEGD) (SEQ ID NO:6) was also cleaved by M2pd with less efficient kinetic parameters. […]
Incubation in 0.1 M sodium acetate, pH 4.0, for 16 h at 22° C. auto-catalytically converted pro-M2pd to M2pd. […] For kinetic studies, the identified HPLC (Beckman System Gold) product peaks were integrated for quantitation. The Km and kcat values for presenilin 1 and Swedish APP peptides (Table 1) were measured by steady-state kinetics. The individual Km and kcat values for APP peptide could not be measured accurately by standard methods, so its kcat/Km value was measured by competitive hydrolysis of mixed substrates against presenilin 1 peptide (Fersht, A. “Enzyme Structure and Mechanism”, 2nd Ed., W.H. Freeman and Company, New York. (1985)).

T1 sequence (P56817 14-454): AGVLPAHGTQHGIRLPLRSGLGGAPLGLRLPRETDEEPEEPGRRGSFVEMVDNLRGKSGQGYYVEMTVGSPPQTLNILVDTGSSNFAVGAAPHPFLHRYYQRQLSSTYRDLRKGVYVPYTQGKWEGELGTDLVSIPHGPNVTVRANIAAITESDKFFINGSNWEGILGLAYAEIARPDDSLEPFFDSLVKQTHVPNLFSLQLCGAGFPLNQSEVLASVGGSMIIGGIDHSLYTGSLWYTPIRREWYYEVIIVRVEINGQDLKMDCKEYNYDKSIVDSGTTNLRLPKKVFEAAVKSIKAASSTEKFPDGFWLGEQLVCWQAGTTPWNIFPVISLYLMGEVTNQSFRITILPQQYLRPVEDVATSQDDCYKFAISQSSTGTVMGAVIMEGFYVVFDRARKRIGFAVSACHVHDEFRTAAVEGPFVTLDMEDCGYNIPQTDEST

Consider `CO/C1=C\C(C)=C\[C@@H](C)[C@@H](O)[C@@H](C)C/C(C)=C/C=C/[C@H](OC)[C@@H]([C@@H](C)[C@@H](O)[C@H](C)[C@@]2(O)C[C@@H](O)[C@H](C)[C@@H](C(C)C)O2)OC1=O` [Bafilomycin A1], for which the “production of APP fragments beta N- and beta C-” value in assay [1] is on record as “abolished the production of both APP fragments”. As to KGGVVIATVIVK, the “cleavage by M2pd” value with M2pd is “not cleaved”.
